Where “and” joins values, the source holds several entries; their conditions need not be identical. Equal entries are not always repeated.
Experiments:
[1] = system: BGC-823; assay: cells; assay type: functional, cell-based; conditions: Homo sapiens, BGC-823, 72 h
Description: Cytotoxicity against human BGC-823 cells assessed as inhibition of cell growth incubated for 72 hrs by MTT assay

[2] = system: AGS; assay: cells; assay type: functional, cell-based; conditions: Homo sapiens, 72 h
Description: Cytotoxicity against human AGS cells assessed as inhibition of cell growth incubated for 72 hrs by MTT assay

[3] = system: MGC-803; assay: cells; assay type: functional, cell-based; conditions: Homo sapiens, MGC-803, 72 h
Description: Cytotoxicity against human MGC-803 cells assessed as inhibition of cell growth incubated for 72 hrs by MTT assay

[4] = system: HGC-27; assay: cells; assay type: functional, cell-based; conditions: Homo sapiens, HGC-27, 72 h
Description: Cytotoxicity against human HGC-27 cells assessed as inhibition of cell growth incubated for 72 hrs by MTT assay

[5] = in vitro; conditions: human, GES1 cells
Description: Cytotoxicity against human GES1 cells assessed as inhibition of cell growth incubated for 72 hrs by MTT assay

[6] = in vitro; conditions: human, WI-38 cells
Description: Cytotoxicity against human WI-38 cells assessed as inhibition of cell growth incubated for 72 hrs by MTT assay

[7] = system: SGC-7901; assay: cells; assay type: functional, cell-based; conditions: Homo sapiens, SGC-7901, 72 h
Description: Cytotoxicity against human SGC-7901 cells assessed as inhibition of cell growth incubated for 72 hrs by MTT assay

[8] = system: HGC-27; assay: Antiproliferative activity against human HGC-27 cells measured after 24 hrs by […]; assay type: functional, cell-based; conditions: HGC-27, 24 h
[9] = Toxicity in BALB/c mouse xenografted with human HGC-27 cells assessed as hematocrit level at 150 mg/kg, po bid for 19 days; assay type: organism-based; conditions: in vivo, 456 h, time 19 day
[10] = Toxicity in BALB/c mouse xenografted with human HGC-27 cells assessed as mean platelet volume at 150 mg/kg, po bid for 19 days; assay type: organism-based; conditions: in vivo, 456 h, time 19 day
[11] = Toxicity in BALB/c mouse xenografted with human HGC-27 cells assessed as platelet distribution width at 150 mg/kg, po bid for 19 days; assay type: organism-based; conditions: in vivo, 456 h, time 19 day
[12] = Toxicity in BALB/c mouse xenografted with human HGC-27 cells assessed as monocyte level at 150 mg/kg, po bid for 19 days; assay type: organism-based; conditions: in vivo, 456 h, time 19 day
[13] = Toxicity in BALB/c mouse xenografted with human HGC-27 cells assessed as platelet level at 150 mg/kg, po bid for 19 days; assay type: organism-based; conditions: in vivo, 456 h, time 19 day
[14] = Toxicity in BALB/c mouse xenografted with human HGC-27 cells assessed as lymphocyte level at 150 mg/kg, po bid for 19 days; assay type: organism-based; conditions: in vivo, 456 h, time 19 day
[15] = Toxicity in BALB/c mouse xenografted with human HGC-27 cells assessed as RBC level at 150 mg/kg, po bid for 19 days; assay type: organism-based, Erythrocyte; conditions: in vivo, 456 h, time 19 day
[16] = system: HGC-27; assay: Antitumor activity against human HGC-27 cells xenografted in BALB/c mouse assessed as tumor growth inhibition at 150 mg/kg, po bid administered for 19 days; assay type: functional; conditions: HGC-27, 456 h, time 19 day, read-out: TGI
[17] = Toxicity in BALB/c mouse xenografted with human HGC-27 cells assessed as red blood cell distribution width at 150 mg/kg, po bid for 19 days; assay type: organism-based; conditions: in vivo, 456 h, time 19 day
[18] = Toxicity in BALB/c mouse xenografted with human HGC-27 cells assessed as mean corpuscular volume at 150 mg/kg, po bid for 19 days; assay type: organism-based; conditions: in vivo, 456 h, time 19 day
[19] = Toxicity in BALB/c mouse xenografted with human HGC-27 cells assessed as granulocyte level at 150 mg/kg, po bid for 19 days; assay type: organism-based; conditions: in vivo, 456 h, time 19 day

Row | SMILES | IC50 [1] | IC50 [2] | IC50 [3] | IC50 [4] | IC50 at 72 h [5] | IC50 at 72 h [6] | IC50 [7] | other results
1 | O=C(NCc1ccc(NC(=O)c2cccc(F)c2N2CCCC2)cc1)OCc1cccnc1 | > 100 µM | > 100 µM | > 100 µM | 2.02 µM | > 100 µM | > 100 µM | > 100 µM | 
2 | O=C(NCc1ccc(NC(=O)c2cc(Br)ccc2N2CCCC2)cc1)OCc1cccnc1 | > 100 µM | > 100 µM | 45.7 µM | 0.64 µM | > 100 µM | > 100 µM | > 100 µM | 
3 | C#Cc1cccc(C(=O)Nc2ccc(CNC(=O)OCc3cccnc3)cc2)c1 |  |  |  |  |  |  |  | IC50 [8]: > 100 µM
4 | O=c1[nH]cc(F)c(=O)[nH]1 [FLUOROURACIL] | 14 µM | 23.2 µM | 62.5 µM | 27.5 µM | 38.5 µM |  | 69.8 µM | 
5 | O=C(NCc1ccc(NC(=O)c2ccc(F)cc2N2CCCC2)cc1)OCc1cccnc1 | 74.5 µM | > 100 µM | 52.1 µM | 1.84 µM | > 100 µM | > 100 µM | 56.2 µM | 
6 | O=C(NCc1ccc(NC(=O)c2cc(Cl)ccc2N2CCCC2)cc1)OCc1cccnc1 | > 100 µM | > 100 µM | 55.5 µM | 0.75 µM | > 100 µM | > 100 µM | > 100 µM | 
7 | Cc1ccc(C(=O)Nc2ccc(CNC(=O)OCc3cccnc3)cc2)c(N2CCCC2)c1 | > 100 µM | > 100 µM | > 100 µM | 1.87 µM | > 100 µM | > 100 µM | 75.2 µM | 
8 | Cc1ccc(N2CCCC2)c(C(=O)Nc2ccc(CNC(=O)OCc3cccnc3)cc2)c1 | > 100 µM | 24.7 µM | 19.1 µM | 1.65 µM | > 100 µM | 40.6 µM | 65.3 µM | 
9 | COc1ccc(N2CCCC2)c(C(=O)Nc2ccc(CNC(=O)OCc3cccnc3)cc2)c1 | > 100 µM | 25.6 µM | 85.7 µM | 138 µM | > 100 µM | 35.6 µM | 47.2 µM | 
10 | CCCCCOC(=O)Nc1nc(=O)n([C@@H]2O[C@H](C)[C@@H](O)[C@H]2O)cc1F [CAPECITABINE] |  |  |  |  |  |  |  | Activity [9]: 55.25%; Activity [10]: 6.95 fL; Activity [11]: 17.93; Activity [12]: 1.75 10^9/L and 2.18%; Activity [13]: 799 10^9/L; Activity [14]: 6.1 10^9/L and 7.45%; Activity [15]: 10.26 10^12/L; inhibition in vivo at 150 mg/kg [16]: 29.9%; Activity [17]: 15.63%; Activity [18]: 53.73 fL; Activity [19]: 73.83 10^9/L and 90.38%
11 | C#Cc1ccc(N2CCCC2)c(C(=O)Nc2ccc(CNC(=O)OCc3cccnc3)cc2)c1 |  |  |  |  |  |  |  | IC50 [8]: 2.48 µM
12 | O=C(NCc1ccc(NC(=O)c2cc(-c3ccccc3)ccc2N2CCCC2)cc1)OCc1cccnc1 | > 100 µM | > 100 µM | 10.5 µM | 4.34 µM | > 100 µM | > 100 µM | > 100 µM | 
13 | O=C(NCc1ccc(NC(=O)c2cc(C(F)(F)F)ccc2N2CCCC2)cc1)OCc1cccnc1 | > 100 µM | > 100 µM | 42.1 µM | 0.79 µM | > 100 µM | > 100 µM | > 100 µM | 
14 | Nc1ccccc1NC(=O)c1ccc(CNC(=O)OCc2cccnc2)cc1 [ENTINOSTAT] | 27 µM | 26.7 µM | 58.6 µM | 18.5 µM | 60.2 µM |  | > 200 µM | 
15 | Cc1cccc(C(=O)Nc2ccc(CNC(=O)OCc3cccnc3)cc2)c1N1CCCC1 | > 100 µM | > 100 µM | > 100 µM | 1.03 µM | > 100 µM | > 100 µM | > 100 µM | 
